Tested on: brain activity (BOLD signal)
Assay: pharmaco-MRI (BOLD) neuroimaging study in conscious rats
Type: in vivo, rat
Conditions: for median number of positive voxels (positive BOLD volume of activation): 20-30 min post injection
Description: Test Substance, Reference Substance(s), and Vehicle: the compound of example 1 test substance for dose-dependent change in BOLD signal was provided by Syndesi along with the formula for the vehicle.
Subjects: Forty-eight male Sprague Dawley rats weighing ca 275-300 g were obtained from Charles River Laboratories (Wilmington, MA, USA). Rat were maintained on a 12:12 hour light:dark cycle with a lights on at 0700 hours and allowed access to food and water ad libitum. All rats were acquired and cared for in accordance with the guidelines published in the Guide for the Care and Use of Laboratory Animals (National Institutes of Health Publications No. 85-23, Revised 1985) and adhered to the National Institutes of Health and the American Association for Laboratory Animal Science guidelines.
Acclimation: To reduce the stress associated with head restraint, rats were acclimated to the restraining system (head holder and body tube) one week prior to their actual imaging session. The design of the restraining system (Animal Imaging Research, Holden MA, USA) included a padded head support obviating the need for ear bars helping to reduce animal discomfort while minimizing motion artifact. These acclimation sessions were run each day for 4-5 consecutive days. Rats were briefly anesthetized with 2-3% isoflurane while being secured into the head holder. The forepaws were secured with tape. When fully conscious, the imaging system is placed into a black opaque box “mock scanner” for 30 min with a tape-recording of the MRI pulse sequence to simulate the bore of the magnet and the imaging protocol. A significant decline in respiration, heart rate, motor movements, and plasma corticosterone has been measured when the first and last acclimation periods are compared (King et al., 2005). The reduction in autonomic and somatic measures of arousal and stress improve the signal resolution and quality of the images.
Image Acquisition: Animals were scanned at 300 MHz using a quadrature transmit/receive volume coil built into the rat head holder and restraining system for awake animal imaging (Animal Imaging Research, Holden, MA, USA). The design of the coil provided complete coverage of the brain from olfactory bulbs to brain stem with excellent B1 field homogeneity. Experiments were conducted using a Bruker Biospec 7.0 T/20-cm USR horizontal magnet (Bruker, Billerica, MA, USA) and a 20-G/cm magnetic field gradient insert (ID=12 cm) capable of a 120-μs rise time. At the beginning of each imaging session, a high-resolution anatomical data set was collected using the RARE pulse sequence [22 slice; 1.0 mm; field of view (FOV) 3.0 cm; matrix size 256×256; repetition time (TR) 2.5 s; echo time (TE) 12 ms; NEX 2; 3 min acquisition time]. Functional images were acquired using a multi-slice half-Fourier acquisition single-shot turbo spin echo (HASTE) pulse sequence. Bruker Paravision automatically finds the basic frequency, shims, power requirements for 90° and 180° pulses and sets the receiver gain. A single scanning session acquired 22 slices, 1.0 mm thick, every 6.0 s (TR), using an effective TE of 48 ms, FOV 3.0 cm, matrix size 96×96, NEX 1, and repeated 450 times for a total scanning time of 45 min. The in-plane pixel resolution was 312 μm2.
Data Processing: Data are coregistered to a mean functional image using SPM8's coregistrational code with the following parameters: Quality: 0.97, Smoothing: 0.35 mm, Separation: 0.5 mm. Gaussian smoothing was performed with a FWHM of 0.8 mm. Images were aligned and registered to the 3D rat brain atlas, segmented and labeled with 171 discrete anatomical regions. The alignment process was facilitated by an interactive graphic user interface. The registration process involved translation, rotation and scaling independently and in all three dimensions. Matrices that transformed each subject's anatomy were used to embed each slice within the atlas. […]

`O=C1C[C@H](c2cc(F)c(F)c(F)c2)CN1Cn1ncnc1Cl` [compound of example 1, (4R)-1-[(5-chloro-1H-1,2,4-triazol-1-yl)methyl]-4-(3,4,5-trifluorophenyl)pyrrolidin-2-one] was tested, and the “effect on the volume of activation (dose response, inverted U)” value (0.1 mg/kg i.p.) was “greatest effect”, the “brain areas significantly activated, low dose versus vehicle” value (0.1 mg/kg versus vehicle, of 171 brain regions) was 30/171 and the “effect on the volume of activation (dose response, inverted U)” value (1.0 mg/kg i.p.) was “little or no activation”. For the same molecule, the “median number of positive voxels (positive BOLD volume of activation)” value (from here on “median number of positive voxels”) (CA1 dorsal, 0.1 mg/kg i.p.) was 23, the “median number of positive voxels” value (CA1 dorsal, 0.3 mg/kg i.p.) was 15 and the “median number of positive voxels” value (CA1 dorsal, 1.0 mg/kg i.p.) was 0. For the same molecule, the “median number of positive voxels” value (accumbens core, 0.1 mg/kg i.p.) was 13, the “median number of positive voxels” value (accumbens core, 0.3 mg/kg i.p.) was 3 and the “median number of positive voxels” value (accumbens core, 1.0 mg/kg i.p.) was 0. For the same molecule, the “median number of positive voxels” value (accumbens shell, 0.1 mg/kg i.p.) was 8, the “median number of positive voxels” value (accumbens shell, 0.3 mg/kg i.p.) was 10 and the “median number of positive voxels” value (accumbens shell, 1.0 mg/kg i.p.) was 2. The “median number of positive voxels” value (anterior cingulate area, 0.1 mg/kg i.p.) was 67, the “median number of positive voxels” value (anterior cingulate area, 0.3 mg/kg i.p.) was 37 and the “median number of positive voxels” value (anterior cingulate area, 1.0 mg/kg i.p.) was 2. For the same molecule, the “median number of positive voxels” value (anterior pretectal nucleus, 0.1 mg/kg i.p.) was 7, the “median number of positive voxels” value (anterior pretectal nucleus, 0.3 mg/kg i.p.) was 5 and the “median number of positive voxels” value (anterior pretectal nucleus, 1.0 mg/kg i.p.) was 0. The “median number of positive voxels” value (central amygdaloid nucleus, 0.1 mg/kg i.p.) was 8, the “median number of positive voxels” value (central amygdaloid nucleus, 0.3 mg/kg i.p.) was 4 and the “median number of positive voxels” value (central amygdaloid nucleus, 1.0 mg/kg i.p.) was 0. For the same molecule, the “median number of positive voxels” value (dentate gyrus dorsal, 0.1 mg/kg i.p.) was 17, the “median number of positive voxels” value (dentate gyrus dorsal, 0.3 mg/kg i.p.) was 9 and the “median number of positive voxels” value (dentate gyrus dorsal, 1.0 mg/kg i.p.) was 0. The “median number of positive voxels” value (dentate gyrus ventral, 0.1 mg/kg i.p.) was 14, the “median number of positive voxels” value (dentate gyrus ventral, 0.3 mg/kg i.p.) was 14 and the “median number of positive voxels” value (dentate gyrus ventral, 1.0 mg/kg i.p.) was 0. The “median number of positive voxels” value (dorsal medial striatum, 0.1 mg/kg i.p.) was 39, the “median number of positive voxels” value (dorsal medial striatum, 0.3 mg/kg i.p.) was 30 and the “median number of positive voxels” value (dorsal medial striatum, 1.0 mg/kg i.p.) was 0. For the same molecule, the “median number of positive voxels” value (dorsal raphe, 0.1 mg/kg i.p.) was 1, the “median number of positive voxels” value (dorsal raphe, 0.3 mg/kg i.p.) was 0 and the “median number of positive voxels” value (dorsal raphe, 1.0 mg/kg i.p.) was 0. For the same molecule, the “median number of positive voxels” value (endopiriform nucleus, 0.1 mg/kg i.p.) was 2, the “median number of positive voxels” value (endopiriform nucleus, 0.3 mg/kg i.p.) was 0 and the “median number of positive voxels” value (endopiriform nucleus, 1.0 mg/kg i.p.) was 0. The “median number of positive voxels” value (granular cell layer, 0.1 mg/kg i.p.) was 70, the “median number of positive voxels” value (granular cell layer, 0.3 mg/kg i.p.) was 52 and the “median number of positive voxels” value (granular cell layer, 1.0 mg/kg i.p.) was 9. For the same molecule, the “median number of positive voxels” value (habenula nucleus, 0.1 mg/kg i.p.) was 11, the “median number of positive voxels” value (habenula nucleus, 0.3 mg/kg i.p.) was 10 and the “median number of positive voxels” value (habenula nucleus, 1.0 mg/kg i.p.) was 0. The “median number of positive voxels” value (infralimbic ctx, 0.1 mg/kg i.p.) was 19, the “median number of positive voxels” value (infralimbic ctx, 0.3 mg/kg i.p.) was 21 and the “median number of positive voxels” value (infralimbic ctx, 1.0 mg/kg i.p.) was 4. For the same molecule, the “median number of positive voxels” value (lateral amygdaloid nucleus, 0.1 mg/kg i.p.) was 5, the “median number of positive voxels” value (lateral hypothalamus, 0.1 mg/kg i.p.) was 56 and the “median number of positive voxels” value (lateral hypothalamus, 0.3 mg/kg i.p.) was 59. For the same molecule, the “median number of positive voxels” value (lateral hypothalamus, 1.0 mg/kg i.p.) was 2, the “median number of positive voxels” value (lateral orbital ctx, 0.1 mg/kg i.p.) was 29 and the “median number of positive voxels” value (lateral orbital ctx, 0.3 mg/kg i.p.) was 14. The “median number of positive voxels” value (lateral orbital ctx, 1.0 mg/kg i.p.) was 1, the “median number of positive voxels” value (lateral posterior thalamic nucleus, 0.1 mg/kg i.p.) was 11 and the “median number of positive voxels” value (lateral posterior thalamic nucleus, 0.3 mg/kg i.p.) was 3. For the same molecule, the “median number of positive voxels” value (lateral posterior thalamic nucleus, 1.0 mg/kg i.p.) was 0, the “median number of positive voxels” value (lateral preoptic area, 0.1 mg/kg i.p.) was 12 and the “median number of positive voxels” value (lateral preoptic area, 0.3 mg/kg i.p.) was 3. For the same molecule, the “median number of positive voxels” value (lateral preoptic area, 1.0 mg/kg i.p.) was 0, the “median number of positive voxels” value (lateral septal nucleus, 0.1 mg/kg i.p.) was 34 and the “median number of positive voxels” value (lateral septal nucleus, 0.3 mg/kg i.p.) was 35. The “median number of positive voxels” value (lateral septal nucleus, 1.0 mg/kg i.p.) was 4, the “median number of positive voxels” value (paraventricular nucleus (first entry, P 0.003), 0.1 mg/kg i.p.) was 4 and the “median number of positive voxels” value (paraventricular nucleus (first entry, P 0.003), 0.3 mg/kg i.p.) was 5. The “median number of positive voxels” value (paraventricular nucleus (first entry, P 0.003), 1.0 mg/kg i.p.) was 0, the “median number of positive voxels” value (prelimbic ctx, 0.1 mg/kg i.p.) was 50 and the “median number of positive voxels” value (prelimbic ctx, 0.3 mg/kg i.p.) was 32. The “median number of positive voxels” value (prelimbic ctx, 1.0 mg/kg i.p.) was 4, the “median number of positive voxels” value (reticular nucleus midbrain, 0.1 mg/kg i.p.) was 19 and the “median number of positive voxels” value (reticular nucleus midbrain, 0.3 mg/kg i.p.) was 18. The “median number of positive voxels” value (reticular nucleus midbrain, 1.0 mg/kg i.p.) was 1, the “median number of positive voxels” value (retrosplenial caudal ctx, 0.1 mg/kg i.p.) was 43 and the “median number of positive voxels” value (retrosplenial caudal ctx, 0.3 mg/kg i.p.) was 27. The “median number of positive voxels” value (retrosplenial caudal ctx, 1.0 mg/kg i.p.) was 0, the “median number of positive voxels” value (subiculum dorsal, 0.1 mg/kg i.p.) was 13 and the “median number of positive voxels” value (subiculum dorsal, 0.3 mg/kg i.p.) was 12. The “median number of positive voxels” value (subiculum dorsal, 1.0 mg/kg i.p.) was 0, the “median number of positive voxels” value (substantia nigra reticularis, 0.1 mg/kg i.p.) was 19 and the “median number of positive voxels” value (substantia nigra reticularis, 0.3 mg/kg i.p.) was 22. For the same molecule, the “median number of positive voxels” value (substantia nigra reticularis, 1.0 mg/kg i.p.) was 2, the “median number of positive voxels” value (triangular septal nucleus, 0.1 mg/kg i.p.) was 4 and the “median number of positive voxels” value (triangular septal nucleus, 0.3 mg/kg i.p.) was 1. For the same molecule, the “median number of positive voxels” value (triangular septal nucleus, 1.0 mg/kg i.p.) was 0, the “brain areas significantly affected by the four treatments” value (vehicle, 0.1, 0.3, 1.0 mg/kg, of 171 brain regions) was 71/171 and the “median number of positive voxels” value (ventral lateral striatum, 0.1 mg/kg i.p.) was 82. The “median number of positive voxels” value (ventral lateral striatum, 0.3 mg/kg i.p.) was 1, the “median number of positive voxels” value (ventral lateral striatum, 1.0 mg/kg i.p.) was 0 and the “median number of positive voxels” value (ventral medial striatum, 0.1 mg/kg i.p.) was 47. The “median number of positive voxels” value (ventral medial striatum, 0.3 mg/kg i.p.) was 18, the “median number of positive voxels” value (ventral medial striatum, 1.0 mg/kg i.p.) was 0 and the “median number of positive voxels” value (ventral orbital ctx, 0.1 mg/kg i.p.) was 19. For the same molecule, the “median number of positive voxels” value (ventral orbital ctx, 0.3 mg/kg i.p.) was 4, the “median number of positive voxels” value (ventral orbital ctx, 1.0 mg/kg i.p.) was 1 and the “median number of positive voxels” value (ventral subiculum, 0.1 mg/kg i.p.) was 26. The “median number of positive voxels” value (ventral subiculum, 0.3 mg/kg i.p.) was 25, the “median number of positive voxels” value (ventral subiculum, 1.0 mg/kg i.p.) was 3 and the “median number of positive voxels” value (ventral tegmental area, 0.1 mg/kg i.p.) was 8. For the same molecule, the “median number of positive voxels” value (ventral tegmental area, 0.3 mg/kg i.p.) was 5, the “median number of positive voxels” value (ventral tegmental area, 1.0 mg/kg i.p.) was 0 and the “median number of positive voxels” value (visual 1 ctx, 0.1 mg/kg i.p.) was 27. For the same molecule, the “median number of positive voxels” value (visual 1 ctx, 0.3 mg/kg i.p.) was 21, the “median number of positive voxels” value (visual 1 ctx, 1.0 mg/kg i.p.) was 0 and the “median number of positive voxels” value (zona incerta, 0.1 mg/kg i.p.) was 9. The “median number of positive voxels” value (zona incerta, 0.3 mg/kg i.p.) was 3 and the “median number of positive voxels” value (zona incerta, 1.0 mg/kg i.p.) was 0.
